System: Lactococcus lactis subsp. cremoris strain MG1363
Experiment: Culturing in the presence of hemin with aeration (Example 1.1)
Format: cell-based
Conditions: for pH: final pH of medium; for pH / OD600 nm / Viable bacterial count / Concentration of lactic acid: hemin 10 μg/ml, aeration, 24 h
Description: A laboratory medium (M17 supplemented with glucose in amounts, as indicated in the Table I, lactose being also usable) is inoculated with the Lactococcus lactic subsp. cremoris strain MG1363 in the form of a 1/100 or 1/1000 dilution of a saturated culture (prepared at 30° C. with no shaking). The inoculated medium contained or not hemin at a final concentration of 10 μg/ml (a 0.5 mg/ml stock solution is prepared by dissolving 100 mg of hemin in 2 ml of 5N NaOH, to which 198 ml of water is then added; the solution is autoclaved at 120° C. for 20 minutes). For bacteria grown in medium containing hemin, cultures were maintained at 30° C. with shaking (250 rotations per minute) in order to ensure oxygenation. Control cultures, without addition of hemin and without shaking, were grown at 30° C. in parallel. After 24 h of growth, aliquots are removed to measure the optical density at 600 nm (OD600 nm), the number of viable bacteria, the final pH and the concentration of lactic acid in the medium.

[1] = glucose 5 g/l, dilution factor 100
[2] = glucose 5 g/l, dilution factor 1000
[3] = glucose 6 g/l, dilution factor 100
[4] = glucose 6 g/l, dilution factor 1000
[5] = glucose 7 g/l, dilution factor 100
[6] = glucose 7 g/l, dilution factor 1000
[7] = glucose 8 g/l, dilution factor 100
[8] = glucose 8 g/l, dilution factor 1000
[9] = glucose 9 g/l, dilution factor 100
[10] = glucose 9 g/l, dilution factor 1000
[11] = glucose 10 g/l, dilution factor 100
[12] = glucose 10 g/l, dilution factor 1000

C=CC1=C(C)c2cc3[n-]c(cc4nc(cc5[n-]c(cc1n2)c(C)c5C=C)C(C)=C4CCC(=O)O)c(CCC(=O)O)c3C.[Cl-].[Fe+3] [hemin]
production of lactic acid as share of the quantity of sugar added (cells cultured in the presence of hemin and oxygen): less than 10%
pH [1]: 6.2
pH [2]: 6.19
pH [3]: 6.25
pH [4]: 6.13
pH [5]: 6.09
pH [6]: 6.07
pH [7]: 6.04
pH [8]: 6.03
pH [9]: 6.02
pH [10]: 6.01
pH [11]: 6.01
pH [12]: 5.99
OD600 nm [1]: 4.6
Viable bacterial count [1]: 5.7 ×10^9
Concentration of lactic acid [2]: 0.12 g/L
OD600 nm [2]: 4.5
Viable bacterial count [2]: 5.7 ×10^9
OD600 nm [3]: 5.1
Viable bacterial count [3]: 6 ×10^9
Concentration of lactic acid [4]: 0.14 g/L
OD600 nm [4]: 5.5
Viable bacterial count [4]: 7.6 ×10^9
OD600 nm [5]: 5.6
Viable bacterial count [5]: 9.1 ×10^9
Concentration of lactic acid [6]: 0.19 g/L
OD600 nm [6]: 5.7
Viable bacterial count [6]: 8.6 ×10^9
OD600 nm [7]: 5.9
Viable bacterial count [7]: 8.9 ×10^9
Concentration of lactic acid [8]: 0.35 g/L
OD600 nm [8]: 5.4
Viable bacterial count [8]: 9.3 ×10^9
OD600 nm [9]: 5.9
Viable bacterial count [9]: 9.2 ×10^9
Concentration of lactic acid [10]: 0.52 g/L
OD600 nm [10]: 5.8
Viable bacterial count [10]: 9.4 ×10^9
OD600 nm [11]: 6.1
Viable bacterial count [11]: 10.1 ×10^9
Concentration of lactic acid [12]: 0.98 g/L
OD600 nm [12]: 6.2
Viable bacterial count [12]: 9.6 ×10^9
pH of the culture (remains stable) (hemin and oxygen, whatever the concentration of glucose): approximately 6.1
